IC50 data for 59 compounds are collected here from patent US10442763B2, “EBNA1 inhibitors and methods using same” (priority 2015, dated 2019).

Bounds are passed on as bounds.

For the assay, the target named is T1, His-EBNA1 (DNA binding domain of EBNA1, amino acids 459-607) (Epstein-Barr virus, UniProt P03211).
T1 construct: made in house; host or cells: E. coli
T1 sequence (P03211 459-607): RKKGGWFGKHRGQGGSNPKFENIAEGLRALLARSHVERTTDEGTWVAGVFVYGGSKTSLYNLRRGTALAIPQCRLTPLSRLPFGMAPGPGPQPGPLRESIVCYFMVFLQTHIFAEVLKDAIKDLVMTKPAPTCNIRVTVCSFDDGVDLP
Description: Inhibition of 5'-biotin-oPL4624 binding to His-EBNA1 using Alpha Screen technology. The protocol:
Inhibition of 5′-Biotin-oPL4624 Binding to his-EBNA1 Using Alpha Screen Technology
Assays were performed using the DNA binding domain of EBNA1 (amino acids 459-607), which was His-tagged (His-EBNA1) and the self-complementary biotinylated (bt) oligonucleotide with the sequence 5′-bt-[…]-ATGCTACCC-3′ (bt-oPL4624; or 5′-bt-SEQ ID NO: 1). The protein was expressed in E. coli and purified according to Barwell, et al., 1995, J Biol Chem. 270:20556-9.). The bt-oPL4624 oligonucleotide was purchased from Integrated DNA Technologies, Inc (IDT). AlphaScreen donor, acceptor beads and white, opaque 384-well assay plates were purchased from PerkinElmer, Inc.
Assays contained 15 nM His-EBNA1, 0.2 nM bt-oPL4624, 5 μg/mL AlphaScreen streptavidin donor beads and nickel chelate acceptor beads, and a series of concentrations of test compound ranging from 3.2 nM to 100 μM in a total volume of 40 μL assay buffer (25 mM Tris, pH 7.2, 160 mM NaCl, 1 mM MgCl2). His-EBNA1 (30 nM) and bt-oPL4624 (0.4 nM) were preincubated with 10 μg/mL nickel chelate AlphaScreen acceptor bead, or 10 μg/mL streptavidin AlphaScreen donor bead, respectively, for 30 minutes at room temperature in assay buffer. Twenty microliters of His-EBNA1/acceptor bead mix and bt-oPL4624/donor bead mix were transferred to assay plates containing 0.4 μL of 1:3 serial dilutions of test compounds previously prepared in DMSO at concentrations ranging from 0.32 μM to 10 mM. Non-specific binding was determined with 5 μg/mL AlphaScreen acceptor bead in the absence of His-EBNA1. After 2 hr incubation at room temperature, the AlphaScreen signal was measured on the Envision plate reader (PerkinElmer, Inc.) at 680 nm excitation and 570 nm emission. Inhibition values at each concentration of test compound were determined by setting 100% equal to raw data values in the absence of EBNA1 and 0% equal to the raw data values in the presence of EBNA1. Nonlinear regression fits of the inhibition values to a one-site dose-response equation were performed using GraphPad Prism.
Consider `O=C(O)c1cccc(C#Cc2cccc(-c3nn[nH]n3)c2)c1-c1ccc2cc[nH]c2c1` [Entry 42], for which the IC50 is less than 1 µM. With `CN(C)Cc1ccc(C#Cc2cccc(C(=O)O)c2-c2ccc3cc[nH]c3c2)cc1` [Entry 156] the figure was 10 to 100 µM; with `COc1cc(C#Cc2cccc(C(=O)O)c2-c2ccc3cc[nH]c3c2)ccc1CN1CCOCC1` [Entry 45], 10 to 100 µM. In turn, `O=C(O)c1cccc(C#Cc2ccc(COc3ccc(C(F)(F)F)cc3)cc2)c1-c1ccc2cc[nH]c2c1` [Entry 83] came in with an IC50 of 1 to 10 µM.

As to `O=C(O)c1cccc(C#Cc2ccc(OC3CC[S+]([O-])CC3)cc2)c1-c1ccc2cc[nH]c2c1` (centres unmarked) [Entry 29], the IC50 lay within 10 to 100 µM. Then `CCS(=O)(=O)N1CCN(Cc2ccc(C#Cc3cccc(C(=O)O)c3-c3ccc4cc[nH]c4c3)cc2)CC1` [Entry 183], with 10 to 100 µM; and `O=C(O)c1cccc(C#Cc2ccc(CN3CCC(CCO)CC3)cc2)c1-c1ccc2cc[nH]c2c1` [Entry 150], with 1 to 10 µM. Then `COC1CCN(Cc2ccc(C#Cc3cccc(C(=O)O)c3-c3cnc4[nH]ccc4c3)cc2)CC1` [Entry 177], with 100 to 1000 µM; and `Nc1nc(-c2ccc(C#Cc3cccc(C(=O)O)c3-c3ccc4cc[nH]c4c3)cc2)c(C(=O)O)s1` [Entry 129], with less than 1 µM; and `O=C1CCC(C(=O)NCc2ccc(C#Cc3cccc(C(=O)O)c3-c3ccc4cc[nH]c4c3)cc2)CC1` [Entry 198], with less than 1 µM. With `O=C(O)c1cccc(C#Cc2ccc3ccn(CCCN4CCS(=O)(=O)CC4)c3c2)c1-c1ccc2cc[nH]c2c1` [Entry 25], the IC50 lay in the range of 1 to 10 µM.

As for `O=C(O)c1cccc(C#Cc2cnc3c(c2)CCCN3)c1-c1ccc2cc[nH]c2c1` [Entry 16], the IC50 was in the range of 1 to 10 µM. With `O=C(O)c1cccc(C#Cc2cnc3c(ccn3CC3CCS(=O)(=O)CC3)c2)c1-c1ccc2cc[nH]c2c1` [Entry 21] the figure was 1 to 10 µM; with `O=C(O)c1cccc(C#Cc2ccc(COc3ccccc3C(F)(F)F)cc2)c1-c1ccc2cc[nH]c2c1` [Entry 93], 1 to 10 µM. Then `COc1cc(C#Cc2cccc(C(=O)O)c2-c2ccc3cc[nH]c3c2)ccc1CN1CCC(F)(F)CC1` [Entry 48], with 1 to 10 µM; and `O=C(O)c1cccc(C#Cc2ccc(CN3CCS(=O)(=O)CC3)cc2)c1-c1ccc2cc[nH]c2c1` [Entry 148], with 1 to 10 µM.

Compound `CC(C)N1CCN(Cc2ccc(C#Cc3cccc(C(=O)O)c3-c3ccc4cc[nH]c4c3)cc2)CC1` [Entry 164] gave an IC50 of 10 to 100 µM. With `CS(=O)(=O)N1CCC(CN2CCc3ccc(C#Cc4cccc(C(=O)O)c4-c4ccc5cc[nH]c5c4)cc3C2)C1` (centres unmarked) [Entry 62] the figure was 10 to 100 µM. Then `O=C(O)c1cccc(C#Cc2ccc(CN3CCN(C(=O)C4CC4)CC3)cc2)c1-c1ccc2cc[nH]c2c1` [Entry 166], with 1 to 10 µM; and `CS(=O)(=O)c1ccc(OCc2ccc(C#Cc3cccc(C(=O)O)c3-c3ccc4cc[nH]c4c3)cc2)cc1` [Entry 95], with 1 to 10 µM. Then `CC(C)S(=O)(=O)N1Cc2ccc(C#Cc3cccc(C(=O)O)c3-c3ccc4cc[nH]c4c3)cc2C1` [Entry 57], with 1 to 10 µM. In turn, `O=C(O)c1cccc(C#Cc2ccc3c(ccn3CCCN3CCS(=O)(=O)CC3)c2)c1-c1ccc2cc[nH]c2c1` [Entry 24] returned an IC50 of 10 to 100 µM. The compound `CN(C)CCn1ccc2cc(C#Cc3cccc(C(=O)O)c3-c3ccc4cc[nH]c4c3)cnc21` [Entry 4] displayed an IC50 of 1 to 10 µM. In the case of `O=C(O)c1cccc(C#Cc2ccc3c(ccn3CCN3CCOCC3)c2)c1-c1ccc2cc[nH]c2c1` [Entry 13], the IC50 lay in the range of 10 to 100 µM.

With `O=C(O)c1cccc(C#Cc2ccc(OC3CCS(=O)(=O)CC3)cc2)c1-c1ccc2cn[nH]c2c1` [Entry 185], the IC50 is 10 to 100 µM. For the compound `O=C(O)c1cccc(C#Cc2ccc(CN3CCNCC3)cc2)c1-c1ccc2cc[nH]c2c1` [Entry 167], the IC50 was 10 to 100 µM.

As for `CN(C)CCN(C)Cc1ccc(C#Cc2cccc(C(=O)O)c2-c2ccc3cc[nH]c3c2)cc1` [Entry 149], the 50% inhibitory concentration (IC50) was 10 to 100 µM. Turning to `O=C(O)c1cccc(C#Cc2ccc(COc3ccccc3)cc2)c1-c1ccc2cc[nH]c2c1` [Entry 88], the IC50 fell in the range of 1 to 10 µM.

In the case of `COCCN(C)Cc1ccc(C#Cc2cccc(C(=O)O)c2-c2ccc3cc[nH]c3c2)cc1` [Entry 157], the half-inhibitory concentration (IC50) lay within 10 to 100 µM. Then `CC(C)(C)OC(=O)N1CCC2(CC1)CC(=O)c1cc(C#Cc3cccc(C(=O)O)c3-c3ccc4cc[nH]c4c3)ccc1O2` [Entry 124], with 1 to 10 µM; and `CS(=O)(=O)Nc1cccc(CN2CCc3ccc(C#Cc4cccc(C(=O)O)c4-c4ccc5cc[nH]c5c4)cc3C2)c1` [Entry 67], with 1 to 10 µM. Then `CCC(=O)N1CCc2ccc(C#Cc3cccc(C(=O)O)c3-c3ccc4cc[nH]c4c3)cc2C1` [Entry 75], with 10 to 100 µM; and `O=C(O)c1cccc(C#Cc2cnc3c(ccn3CCN3CCS(=O)(=O)CC3)c2)c1-c1ccc2cc[nH]c2c1` [Entry 12], with 10 to 100 µM.

`O=C(O)c1cccc(C#Cc2ccccc2)c1-c1ccc2cccnc2n1` [Entry 117]: the IC50 is 10 to 100 µM. Then `COc1cccc(OCc2ccc(C#Cc3cccc(C(=O)O)c3-c3ccc4cc[nH]c4c3)cc2)c1` [Entry 87], with 1 to 10 µM; and `O=C(O)c1cccc(C#Cc2ccccc2)c1-c1cc2[nH]ccc2cc1F` [Entry 113], with 1 to 10 µM. With `Nc1nc2c(s1)C[C@H](NCc1ccc(C#Cc3cccc(C(=O)O)c3-c3ccc4cc[nH]c4c3)cc1)CC2` [Entry 175] the figure was 1 to 10 µM; with `O=C(O)c1cccc(C#Cc2ccc(COC3CCOCC3)cc2F)c1-c1ccc2cc[nH]c2c1` [Entry 186], 1 to 10 µM; with `CCCNC(=O)c1cc2ccc(C#Cc3cccc(C(=O)O)c3-c3ccc4cc[nH]c4c3)cc2[nH]1` [Entry 101], 1 to 10 µM.

Take `O=C(O)c1cccc(C#Cc2ccc(OCCC3CCOCC3)cc2)c1-c1ccc2cc[nH]c2c1` [Entry 143]: the IC50 lay in the range of 1 to 10 µM. `Cn1ccc2ccc(-c3c(C#Cc4ccccc4)cccc3C(=O)O)nc21` [Entry 116] displayed an IC50 of 10 to 100 µM. With `O=C(O)c1cccc(C#Cc2ccccc2)c1-c1cnc2[nH]ccc2c1` [Entry 139] the figure was less than 1 µM; with `O=C(O)c1cccc(C#Cc2ccccc2)c1-c1ccc2cc[nH]c2c1F` [Entry 109], 10 to 100 µM. Then `O=C(O)c1cccc(C#Cc2ccc(CN3CCc4ccccc4C3)cc2)c1-c1ccc2cc[nH]c2c1` [Entry 160], with 1 to 10 µM; and `O=C(O)c1cccc(C#Cc2ccc(F)cc2)c1-c1cnc2[nH]ccc2c1` [Entry 140], with 10 to 100 µM; and `CC(=O)N1C2CCC1CC(c1ccc(C#Cc3cccc(C(=O)O)c3-c3ccc4cc[nH]c4c3)cc1)C2` (centres unmarked) [Entry 3], with 10 to 100 µM. Turning to `CS(=O)(=O)N1CCC(N2CCc3ccc(C#Cc4cccc(C(=O)O)c4-c4ccc5cc[nH]c5c4)cc3C2)C1` (centres unmarked) [Entry 58], the IC50 was in the range of 10 to 100 µM. As to `CN1CCN(Cc2ccc(C#Cc3cccc(C(=O)O)c3-c3ccc4[nH]ccc4c3)cc2)CC1` [Entry 182], the IC50 lay within 1 to 10 µM.

Take `O=C(O)c1cccc(C#Cc2cn(CCN3CCOCC3)c3ncccc23)c1-c1ccc2cc[nH]c2c1` [Entry 10]: the IC50 lay in the range of 10 to 100 µM. For `CN1CCN(Cc2ccc(C#Cc3cccc(C(=O)O)c3-c3ccc4cc[nH]c4c3)cc2)CC1` [Entry 147], the IC50 was 10 to 100 µM. `O=C(O)c1cccc(C#Cc2ccc(COc3cccc(C(F)(F)F)c3)cc2)c1-c1ccc2cc[nH]c2c1` [Entry 84] gave an IC50 of 1 to 10 µM. `O=C(O)c1cccc(C#Cc2ccc3ccn(CC4CCS(=O)(=O)CC4)c3c2F)c1-c1ccc2cc[nH]c2c1` [Entry 37] displayed an IC50 of 1 to 10 µM. For the compound `O=C(O)c1cccc(C#Cc2ccc(COC3CCS(=O)(=O)CC3)cc2)c1-c1ccc2cc[nH]c2c1` [Entry 26], the IC50 was in the range of 10 to 100 µM.

The compound `O=C(O)c1cccc(C#Cc2ccc3nc(C(F)(F)F)[nH]c(=O)c3c2)c1-c1ccc2cc[nH]c2c1` [Entry 135] displayed an IC50 of 1 to 10 µM. On to `CN(C)CCCn1ccc2cc(C#Cc3cccc(C(=O)O)c3-c3ccc4cc[nH]c4c3)cnc21` [Entry 5], for which the IC50 was 10 to 100 µM. With `CS(=O)(=O)c1cccc(OCc2ccc(C#Cc3cccc(C(=O)O)c3-c3ccc4cc[nH]c4c3)cc2)c1` [Entry 98] the figure was 1 to 10 µM; with `O=C(O)c1cccc(C#Cc2ccc(CN3CCCC(F)(F)C3)cc2)c1-c1ccc2cc[nH]c2c1` [Entry 159], 1 to 10 µM.

Take `O=C(O)c1cccc(C#Cc2ccc(CN3CCN(c4cnccn4)CC3)cc2)c1-c1ccc2cc[nH]c2c1` [Entry 172]: the IC50 lay within 1 to 10 µM. With `O=C(O)c1cccc(C#Cc2ccc(C(=O)N3CCOCC3)c(O)c2)c1-c1ccc2cc[nH]c2c1` [Entry 46] the figure was 10 to 100 µM.
